# In ChEMBL document CHEMBL1781971, “Discovery of 5-(arenethynyl) hetero-monocyclic derivatives as potent inhibitors of BCR-ABL including the T315I gatekeeper mutant” (Bioorg Med Chem Lett, 2011):
# Test system: not listed separately
# Assay: Half life in rat at 15 mg/kg, po
# Type: ADME, organism-based
# Parameters: dose 15 mg/kg, route oral
# Details: in vivo
row,Structure (SMILES),half-life
1,Cc1ccc(C(=O)Nc2ccc(CN3CCN(CCO)CC3)c(C(F)(F)F)c2)cc1C#Cc1cnc(C(N)=O)n1C,6.3 h
2,Cc1ccc(C(=O)Nc2ccc(CN3CCN(C)CC3)c(C(F)(F)F)c2)cc1C#Cc1cncnc1,10 h
3,Cc1ccc(C(=O)Nc2ccc(CN3CCN(C)CC3)c(C(F)(F)F)c2)cc1C#Cc1cnc(C(N)=O)n1C,8 h

# Test system: Rattus norvegicus
# Assay: AUC in rat at 15 mg/kg, po
# Type: ADME, organism-based, Plasma
# Parameters: dose 15 mg/kg, route oral
# Details: in vivo
row,Structure (SMILES),AUC
1,Cc1ccc(C(=O)Nc2ccc(CN3CCN(CCO)CC3)c(C(F)(F)F)c2)cc1C#Cc1cnc(C(N)=O)n1C,962 h/ng/mL
2,Cc1ccc(C(=O)Nc2ccc(CN3CCN(C)CC3)c(C(F)(F)F)c2)cc1C#Cc1cncnc1,13559 h/ng/mL
3,Cc1ccc(C(=O)Nc2ccc(CN3CCN(C)CC3)c(C(F)(F)F)c2)cc1C#Cc1cnc(C(N)=O)n1C,4144 h/ng/mL

# Test system: not listed separately
# Assay: Oral bioavailability in rat at 15 mg/kg
# Type: ADME, organism-based
# Details: in vivo
row,Structure (SMILES),bioavailability
1,Cc1ccc(C(=O)Nc2ccc(CN3CCN(CCO)CC3)c(C(F)(F)F)c2)cc1C#Cc1cnc(C(N)=O)n1C,14%
2,Cc1ccc(C(=O)Nc2ccc(CN3CCN(C)CC3)c(C(F)(F)F)c2)cc1C#Cc1cncnc1,85%
3,Cc1ccc(C(=O)Nc2ccc(CN3CCN(C)CC3)c(C(F)(F)F)c2)cc1C#Cc1cnc(C(N)=O)n1C,25.3%

# Test system: not listed separately
# Assay: Plasma concentration in mouse after 6 hrs at 30 mg/kg, po
# Type: ADME, organism-based
# Parameters: dose 30 mg/kg, route oral
# Details: not given
row,Structure (SMILES),concentration at 6 h
1,Cc1ccc(C(=O)Nc2ccc(CN3CCN(CCO)CC3)c(C(F)(F)F)c2)cc1C#Cc1cnc(C(N)=O)n1C,0.333 µg/mL
2,Cc1ccc(C(=O)Nc2ccc(CN3CCN(C)CC3)c(C(F)(F)F)c2)cc1C#Cc1cncnc1,0.771 µg/mL
3,Cc1ccc(C(=O)Nc2ccc(CN3CCN(C)CC3)c(C(F)(F)F)c2)cc1C#Cc1cnc(C(N)=O)n1C,0.358 µg/mL

# Test system: not listed separately
# Assay: Cmax in rat at 5 mg/kg, iv
# Type: ADME, organism-based
# Parameters: dose 5 mg/kg, route intravenous
# Details: in vivo
row,Structure (SMILES),Cmax
1,Cc1ccc(C(=O)Nc2ccc(CN3CCN(CCO)CC3)c(C(F)(F)F)c2)cc1C#Cc1cnc(C(N)=O)n1C,0.598 µg/mL
2,Cc1ccc(C(=O)Nc2ccc(CN3CCN(C)CC3)c(C(F)(F)F)c2)cc1C#Cc1cncnc1,0.822 µg/mL
3,Cc1ccc(C(=O)Nc2ccc(CN3CCN(C)CC3)c(C(F)(F)F)c2)cc1C#Cc1cnc(C(N)=O)n1C,0.627 µg/mL

# Test system: not listed separately
# Assay: Half life in rat at 5 mg/kg, iv
# Type: ADME, organism-based
# Parameters: dose 5 mg/kg, route intravenous
# Details: in vivo
row,Structure (SMILES),half-life
1,Cc1ccc(C(=O)Nc2ccc(CN3CCN(CCO)CC3)c(C(F)(F)F)c2)cc1C#Cc1cnc(C(N)=O)n1C,3.5 h
2,Cc1ccc(C(=O)Nc2ccc(CN3CCN(C)CC3)c(C(F)(F)F)c2)cc1C#Cc1cncnc1,6.2 h
3,Cc1ccc(C(=O)Nc2ccc(CN3CCN(C)CC3)c(C(F)(F)F)c2)cc1C#Cc1cnc(C(N)=O)n1C,7 h

# Test system: Rattus norvegicus
# Assay: AUC in rat at 5 mg/kg, iv
# Type: ADME, organism-based, Plasma
# Parameters: dose 5 mg/kg, route intravenous
# Details: in vivo
row,Structure (SMILES),AUC
1,Cc1ccc(C(=O)Nc2ccc(CN3CCN(CCO)CC3)c(C(F)(F)F)c2)cc1C#Cc1cnc(C(N)=O)n1C,2320 h/ng/mL
2,Cc1ccc(C(=O)Nc2ccc(CN3CCN(C)CC3)c(C(F)(F)F)c2)cc1C#Cc1cncnc1,5308 h/ng/mL
3,Cc1ccc(C(=O)Nc2ccc(CN3CCN(C)CC3)c(C(F)(F)F)c2)cc1C#Cc1cnc(C(N)=O)n1C,5445 h/ng/mL

# Test system: not listed separately
# Assay: Volume of distribution in rat at 5 mg/kg, iv
# Type: ADME, organism-based
# Parameters: dose 5 mg/kg, route intravenous
# Details: in vivo
row,Structure (SMILES),Vd
1,Cc1ccc(C(=O)Nc2ccc(CN3CCN(CCO)CC3)c(C(F)(F)F)c2)cc1C#Cc1cnc(C(N)=O)n1C,11 L/kg
2,Cc1ccc(C(=O)Nc2ccc(CN3CCN(C)CC3)c(C(F)(F)F)c2)cc1C#Cc1cncnc1,8.5 L/kg
3,Cc1ccc(C(=O)Nc2ccc(CN3CCN(C)CC3)c(C(F)(F)F)c2)cc1C#Cc1cnc(C(N)=O)n1C,9.3 L/kg

# Test system: not listed separately
# Assay: Clearance in rat at 5 mg/kg, iv
# Type: ADME, organism-based
# Parameters: dose 5 mg/kg, route intravenous
# Details: in vivo
row,Structure (SMILES),clearance
1,Cc1ccc(C(=O)Nc2ccc(CN3CCN(CCO)CC3)c(C(F)(F)F)c2)cc1C#Cc1cnc(C(N)=O)n1C,2.15 L/h/kg
2,Cc1ccc(C(=O)Nc2ccc(CN3CCN(C)CC3)c(C(F)(F)F)c2)cc1C#Cc1cncnc1,0.94 L/h/kg
3,Cc1ccc(C(=O)Nc2ccc(CN3CCN(C)CC3)c(C(F)(F)F)c2)cc1C#Cc1cnc(C(N)=O)n1C,0.92 L/h/kg

# Test system: not listed separately
# Assay: Cmax in rat at 15 mg/kg, po
# Type: ADME, organism-based
# Parameters: dose 15 mg/kg, route oral
# Details: in vivo
row,Structure (SMILES),Cmax
1,Cc1ccc(C(=O)Nc2ccc(CN3CCN(CCO)CC3)c(C(F)(F)F)c2)cc1C#Cc1cnc(C(N)=O)n1C,0.0614 µg/mL
2,Cc1ccc(C(=O)Nc2ccc(CN3CCN(C)CC3)c(C(F)(F)F)c2)cc1C#Cc1cncnc1,0.9 µg/mL
3,Cc1ccc(C(=O)Nc2ccc(CN3CCN(C)CC3)c(C(F)(F)F)c2)cc1C#Cc1cnc(C(N)=O)n1C,0.258 µg/mL

# Biological target: Tyrosine-protein kinase ABL1 (Homo sapiens, UniProt P00519)
# Assay: not given
# Details: not given
row,Structure (SMILES),IC50
1,Cc1ccc(C(=O)Nc2ccc(CN3CCN(CCO)CC3)c(C(F)(F)F)c2)cc1C#Cc1cnc(C(N)=O)n1C,0.0036 µM
2,Cc1ccc(C(=O)Nc2ccc(CN3CCN(C)CC3)c(C(F)(F)F)c2)cc1C#Cc1cccnc1,0.0403 µM
3,Cc1ccc(C(=O)Nc2ccc(CN3CCN(C)CC3)c(C(F)(F)F)c2)cc1C#Cc1cncnc1,0.0627 µM
4,CC(=O)Nc1ccc(C#Cc2cc(C(=O)Nc3ccc(CN4CCN(C)CC4)c(C(F)(F)F)c3)ccc2C)cn1,0.018 µM
5,CCC(=O)Nc1ccc(C#Cc2cc(C(=O)Nc3ccc(CN4CCN(C)CC4)c(C(F)(F)F)c3)ccc2C)cn1,0.0286 µM
6,Cc1ccc(C(=O)Nc2ccc(CN3CCN(C)CC3)c(C(F)(F)F)c2)cc1C#Cc1ccc(C(N)=O)nc1,0.0487 µM
7,Cc1ccc(C(=O)Nc2ccc(CN3CCN(C)CC3)c(C(F)(F)F)c2)cc1C#Cc1cnc(NC2CC2)nc1,0.0497 µM
8,Cc1ccc(C(=O)Nc2ccc(CN3CCN(C)CC3)c(C(F)(F)F)c2)cc1C#Cc1cnc(C(N)=O)n1C,0.0036 µM

# Biological target: Tyrosine-protein kinase ABL1 (Homo sapiens, UniProt P00519, T315I)
# Assay: not given
# Details: not given
row,Structure (SMILES),IC50
1,Cc1ccc(C(=O)Nc2ccc(CN3CCN(CCO)CC3)c(C(F)(F)F)c2)cc1C#Cc1cnc(C(N)=O)n1C,0.036 µM
2,Cc1ccc(C(=O)Nc2ccc(CN3CCN(C)CC3)c(C(F)(F)F)c2)cc1C#Cc1cccnc1,0.123 µM
3,Cc1ccc(C(=O)Nc2ccc(CN3CCN(C)CC3)c(C(F)(F)F)c2)cc1C#Cc1cncnc1,0.435 µM
4,CC(=O)Nc1ccc(C#Cc2cc(C(=O)Nc3ccc(CN4CCN(C)CC4)c(C(F)(F)F)c3)ccc2C)cn1,0.121 µM
5,CCC(=O)Nc1ccc(C#Cc2cc(C(=O)Nc3ccc(CN4CCN(C)CC4)c(C(F)(F)F)c3)ccc2C)cn1,0.104 µM
6,Cc1ccc(C(=O)Nc2ccc(CN3CCN(C)CC3)c(C(F)(F)F)c2)cc1C#Cc1ccc(C(N)=O)nc1,0.321 µM
7,Cc1ccc(C(=O)Nc2ccc(CN3CCN(C)CC3)c(C(F)(F)F)c2)cc1C#Cc1cnc(NC2CC2)nc1,0.457 µM
8,Cc1ccc(C(=O)Nc2ccc(CN3CCN(C)CC3)c(C(F)(F)F)c2)cc1C#Cc1cnc(C(N)=O)n1C,0.025 µM

# Test system: not listed separately
# Assay: cells
# Details: Mus musculus, BaF3
# Description: Antiproliferative activity against mouse BA/F3 cells expressing wild type BCR-ABL
row,Structure (SMILES),IC50
1,Cc1ccc(C(=O)Nc2ccc(CN3CCN(CCO)CC3)c(C(F)(F)F)c2)cc1C#Cc1cnc(C(N)=O)n1C,0.00061 µM
2,Cc1ccc(C(=O)Nc2ccc(CN3CCN(C)CC3)c(C(F)(F)F)c2)cc1C#Cc1cccnc1,0.0041 µM
3,Cc1ccc(C(=O)Nc2ccc(CN3CCN(C)CC3)c(C(F)(F)F)c2)cc1C#Cc1cncnc1,0.0031 µM
4,CC(=O)Nc1ccc(C#Cc2cc(C(=O)Nc3ccc(CN4CCN(C)CC4)c(C(F)(F)F)c3)ccc2C)cn1,0.0022 µM
5,CCC(=O)Nc1ccc(C#Cc2cc(C(=O)Nc3ccc(CN4CCN(C)CC4)c(C(F)(F)F)c3)ccc2C)cn1,0.0025 µM
6,Cc1ccc(C(=O)Nc2ccc(CN3CCN(C)CC3)c(C(F)(F)F)c2)cc1C#Cc1ccc(C(N)=O)nc1,0.0026 µM
7,Cc1ccc(C(=O)Nc2ccc(CN3CCN(C)CC3)c(C(F)(F)F)c2)cc1C#Cc1cnc(NC2CC2)nc1,0.195 µM
8,Cc1ccc(C(=O)Nc2ccc(CN3CCN(C)CC3)c(C(F)(F)F)c2)cc1C#Cc1cnc(C(N)=O)n1C,0.0013 µM

# Test system: not listed separately
# Assay: cells
# Details: Mus musculus, BaF3
# Remark: another data set of the same source
row,Structure (SMILES),IC50
1,Cc1ccc(C(=O)Nc2ccc(CN3CCN(CCO)CC3)c(C(F)(F)F)c2)cc1C#Cc1cnc(C(N)=O)n1C,0.0058 µM
2,Cc1ccc(C(=O)Nc2ccc(CN3CCN(C)CC3)c(C(F)(F)F)c2)cc1C#Cc1cccnc1,0.0455 µM
3,Cc1ccc(C(=O)Nc2ccc(CN3CCN(C)CC3)c(C(F)(F)F)c2)cc1C#Cc1cncnc1,0.065 µM
4,CC(=O)Nc1ccc(C#Cc2cc(C(=O)Nc3ccc(CN4CCN(C)CC4)c(C(F)(F)F)c3)ccc2C)cn1,0.0096 µM
5,CCC(=O)Nc1ccc(C#Cc2cc(C(=O)Nc3ccc(CN4CCN(C)CC4)c(C(F)(F)F)c3)ccc2C)cn1,0.0134 µM
6,Cc1ccc(C(=O)Nc2ccc(CN3CCN(C)CC3)c(C(F)(F)F)c2)cc1C#Cc1ccc(C(N)=O)nc1,0.018 µM
7,Cc1ccc(C(=O)Nc2ccc(CN3CCN(C)CC3)c(C(F)(F)F)c2)cc1C#Cc1cnc(NC2CC2)nc1,0.519 µM
8,Cc1ccc(C(=O)Nc2ccc(CN3CCN(C)CC3)c(C(F)(F)F)c2)cc1C#Cc1cnc(C(N)=O)n1C,0.0076 µM

# Test system: not listed separately
# Assay: cells
# Details: Mus musculus, BaF3
# Remark: another data set of the same source
# Description: Antiproliferative activity against BCR-ABL-negative parental mouse BA/F3 cells
row,Structure (SMILES),IC50
1,Cc1ccc(C(=O)Nc2ccc(CN3CCN(CCO)CC3)c(C(F)(F)F)c2)cc1C#Cc1cnc(C(N)=O)n1C,1.32 µM
2,Cc1ccc(C(=O)Nc2ccc(CN3CCN(C)CC3)c(C(F)(F)F)c2)cc1C#Cc1cccnc1,2.04 µM
3,Cc1ccc(C(=O)Nc2ccc(CN3CCN(C)CC3)c(C(F)(F)F)c2)cc1C#Cc1cncnc1,2.82 µM
4,CC(=O)Nc1ccc(C#Cc2cc(C(=O)Nc3ccc(CN4CCN(C)CC4)c(C(F)(F)F)c3)ccc2C)cn1,1.79 µM
5,CCC(=O)Nc1ccc(C#Cc2cc(C(=O)Nc3ccc(CN4CCN(C)CC4)c(C(F)(F)F)c3)ccc2C)cn1,1.66 µM
6,Cc1ccc(C(=O)Nc2ccc(CN3CCN(C)CC3)c(C(F)(F)F)c2)cc1C#Cc1ccc(C(N)=O)nc1,1.02 µM
7,Cc1ccc(C(=O)Nc2ccc(CN3CCN(C)CC3)c(C(F)(F)F)c2)cc1C#Cc1cnc(NC2CC2)nc1,0.607 µM
8,Cc1ccc(C(=O)Nc2ccc(CN3CCN(C)CC3)c(C(F)(F)F)c2)cc1C#Cc1cnc(C(N)=O)n1C,0.787 µM
